{"source": "ChEMBL document CHEMBL5096192", "about": "“Recent advancements in anti-leishmanial research: Synthetic strategies and structural activity relationships” (Eur J Med Chem, 2021)", "key": {"Leishmania donovani [1]": {"system": "Leishmania donovani", "experiment": "Antileishmanial activity against Leishmania donovani Bob intracellular amastigotes assessed as parasite growth inhibition incubated for 72 hrs by LDH assay", "type": "functional, organism-based"}, "Leishmania amazonensis [2]": {"system": "Leishmania amazonensis", "experiment": "Antileishmanial activity against promastigote form of Leishmania amazonensis MHOM/BR/77/LTB0016 incubated for 24 hrs by MTT assay", "type": "functional, organism-based", "conditions": "MHOM/BR/77/LTB0016, 24 h"}, "[3]": {"experiment": "Selectivity index, ratio of CC50 for cytotoxicity against human THP1 cells to IC50 for antileishmanial activity against promastigote form of Leishmania donovani", "type": "toxicity, cell-based", "conditions": "read-out: Ratio CC50/IC50"}, "Leishmania donovani [4]": {"system": "Leishmania donovani", "experiment": "Antileishmanial activity against promastigote form of Leishmania donovani assessed as inhibition of promastigote growth incubated for 48 hrs by Alamar blue assay", "type": "functional, organism-based"}, "Leishmania donovani [5]": {"system": "Leishmania donovani", "experiment": "Antileishmanial activity against promastigote form of wild-type Leishmania donovani MHOM/80/IN/Dd8 assessed as inhibition of parasite growth incubated for 48 hrs by MTT assay", "type": "functional, organism-based", "conditions": "MHOM/80/IN/Dd8, 48 h"}, "Leishmania panamensis [6]": {"system": "Leishmania panamensis", "experiment": "Antileishmanial activity against Leishmania panamensis MHOM/CO/87/UA140pIR-GFP intracellular amastigotes infected in human U-937 cells assessed as parasite growth inhibition measured after 72 hrs by flow cytometry analysis", "type": "functional, organism-based", "conditions": "U-937, 72 h"}, "Trypanosoma cruzi": {"system": "Trypanosoma cruzi", "experiment": "Antitrypanosomal activity against Trypanosoma cruzi Tulahuen intracellular amastigotes transfected with beta-galactosidase infected in human U-937 cells assessed as viability of intracellular amastigotes measured after 72 hrs by spectrophotometry", "type": "functional, organism-based", "conditions": "U-937, 72 h"}, "Leishmania mexicana [7]": {"system": "Leishmania mexicana", "experiment": "Antileishmanial activity against promastigote form of Leishmania mexicana assessed as inhibition of parasite growth measured for 10 days by Neubauer counting chamber based analysis", "type": "functional, organism-based", "conditions": "240 h"}, "Leishmania major [8]": {"system": "Leishmania major", "experiment": "Antileishmanial activity against Leishmania major axenic amastigotes assessed as parasite growth inhibition by Alamar blue assay", "type": "functional, organism-based"}, "Leishmania major [9]": {"system": "Leishmania major", "experiment": "Antileishmanial activity against Leishmania major JISH118 promastigote infected in human THP-1 cells assessed as parasite growth inhibition measured after 48 hrs by Giemsa staining based analysis", "type": "functional, organism-based", "conditions": "JISH118, THP-1, 48 h"}, "[10]": {"experiment": "Cytotoxicity against BALB/c mouse peritoneal macrophages assessed as reduction in cell viability measured after 48 hrs by luminescence based CellTiter-Glo assay", "type": "toxicity, Peritoneal macrophage"}, "Leishmania infantum": {"system": "Leishmania infantum", "experiment": "Antileishmanial activity against promastigote form of Leishmania infantum BH 46 assessed as parasite growth inhibition measured after 48 hrs by Celltiter-Glo assay", "type": "functional, organism-based", "conditions": "BH 46, 48 h"}, "Leishmania amazonensis [11]": {"system": "Leishmania amazonensis", "experiment": "Antileishmanial activity against promastigote form of Leishmania amazonensis IFLA/BR/1967/PH8 assessed as parasite growth inhibition incubated for 72 hrs by MTT assay", "type": "functional, organism-based", "conditions": "IFLA/BR/1967/PH8, 72 h"}, "Leishmania braziliensis": {"system": "Leishmania braziliensis", "experiment": "Antileishmanial activity against promastigote form of Leishmania braziliensis MHOM/BR/75/M2904 promastigotes assessed as parasite growth inhibition incubated for 48 hrs by resazurin assay", "type": "functional, organism-based", "conditions": "MHOM/BR/75/M2904, 48 h"}, "Leishmania donovani [12]": {"system": "Leishmania donovani", "experiment": "Antileishmanial activity against promastigote form of Leishmania donovani MHOM/IN/83/AG83 assessed as inhibition of promastigote growth incubated for 48 hrs by MTT reduction assay", "type": "functional, organism-based", "conditions": "MHOM/IN/83/AG83, 48 h"}, "Leishmania donovani [13]": {"system": "Leishmania donovani", "experiment": "Antileishmanial activity against Leishmania donovani MHOM/IN/83/AG83 intracellular amastigotes infected in mouse RAW264.7 cells assessed as parasite growth inhibition incubated for 48 hrs by Giemsa staining based microscopic analysis", "type": "functional, organism-based", "conditions": "MHOM/IN/83/AG83, RAW264.7, 48 h"}, "Leishmania mexicana [14]": {"system": "Leishmania mexicana", "experiment": "Inhibition of recombinant Leishmania mexicana CPB2.8 delta CTE at 20 uM"}, "Leishmania mexicana [15]": {"system": "Leishmania mexicana", "experiment": "Antileishmanial activity against mammalian stage Leishmania mexicana MNYC/BZ/62/M379 axenic amastigotes assessed as inhibition of […] incubated for 24 hrs by alamar blue assay", "type": "functional", "conditions": "read-out: ED50 (the source's name)"}, "Leishmania panamensis [16]": {"system": "Leishmania panamensis", "experiment": "Antileishmanial activity against Leishmania panamensis MHOM/CO/87/UA140-EGFP intracellular amastigotes infected in U-937 cells assessed as parasite growth inhibition measured after 72 hrs by flow cytometry analysis", "type": "functional, organism-based", "conditions": "U-937, 72 h"}, "U-937": {"system": "U-937", "experiment": "Cytotoxicity against human U-937 cells assessed as reduction in cell viability measured after 72 hrs by MTT assay", "type": "functional", "conditions": "read-out: LC50 (the source's name)"}}, "data": [{"smiles": "COC(=O)C(N)Cc1c[nH]c2ccccc12", "note": "(centres undefined)", "values": [{"measurement": "IC50", "setting": "Leishmania donovani [1]", "result": 18.2, "unit": "µM"}]}, {"smiles": "N=C(N)c1ccc(OCCCCCOc2ccc(C(=N)N)cc2)cc1", "note": "[PENTAMIDINE]", "values": [{"measurement": "IC50", "setting": "Leishmania amazonensis [2]", "result": 12.3, "unit": "µM"}]}, {"smiles": "Cc1cc(N2C(=O)C(Cl)=C(Cl)C2=O)ccc1[N+](=O)[O-]", "values": [{"measurement": "selectivity ratio", "setting": "[3]", "result": "> 781"}, {"measurement": "IC50", "setting": "Leishmania donovani [4]", "result": "< 0.0128", "unit": "µg/mL"}]}, {"smiles": "Clc1ccc(COc2ccc(-c3nc4ccccc4o3)cc2)c(Cl)c1", "values": [{"measurement": "IC50", "setting": "Leishmania donovani [5]", "result": 57, "unit": "µM"}]}, {"smiles": "CCCCC(CCCCCCC[n+]1ccn(C)c1)Oc1ccc(C(=O)/C=C/c2ccco2)cc1", "note": "(centres undefined)", "values": [{"measurement": "EC50", "setting": "Leishmania panamensis [6]", "result": 2.12, "unit": "µM"}, {"measurement": "EC50", "setting": "Trypanosoma cruzi", "result": 0.72, "unit": "µM"}]}, {"smiles": "CC(CCCCCCC[n+]1ccn(C)c1)Oc1ccc(C(=O)/C=C/c2ccco2)cc1", "note": "(centres undefined)", "values": [{"measurement": "EC50", "setting": "Leishmania panamensis [6]", "result": 0.78, "unit": "µM"}, {"measurement": "EC50", "setting": "Trypanosoma cruzi", "result": 0.66, "unit": "µM"}]}, {"smiles": "O=C(/C=C/c1ccco1)c1ccc(OCCCCCOc2cccc3cccnc23)cc1", "values": [{"measurement": "EC50", "setting": "Leishmania panamensis [6]", "result": 13.8, "unit": "µM"}]}, {"smiles": "Fc1cccc(Nc2cnc3ccccc3c2)c1", "values": [{"measurement": "IC50", "setting": "Leishmania mexicana [7]", "result": 41.9, "unit": "µM"}]}, {"smiles": "COc1ccc(-c2nn(-c3ccccc3)cc2/C=N/N=C/c2c(C)nn(-c3ccccc3)c2Cl)cc1", "values": [{"measurement": "IC50", "setting": "Leishmania major [8]", "result": 1.45, "unit": "µM"}]}, {"smiles": "Fc1ccc(Nc2cnc3ccccc3c2)cc1", "values": [{"measurement": "IC50", "setting": "Leishmania mexicana [7]", "result": 41.9, "unit": "µM"}]}, {"smiles": "Clc1cccc(Nc2nnc(-c3ccc(C(c4c[nH]c5ccccc45)c4c[nH]c5ccccc45)cc3)s2)c1", "values": [{"measurement": "IC50", "setting": "Leishmania major [9]", "result": 0.7, "unit": "µM"}]}, {"smiles": "C/C(=N\\Nc1nc(-c2ccc(Br)cc2)cs1)c1ccccn1", "values": [{"measurement": "CC50 at 48 h", "setting": "[10]", "result": 2.95, "unit": "µM"}, {"measurement": "IC50", "setting": "Leishmania infantum", "result": 3.12, "unit": "µM"}]}, {"smiles": "O=C(C[Se]CC(=O)Nc1ccc([N+](=O)[O-])cc1)Nc1ccc([N+](=O)[O-])cc1", "values": [{"measurement": "IC50", "setting": "Leishmania amazonensis [11]", "result": 5.67, "unit": "µg/mL"}]}, {"smiles": "CC(C)=CCC1=C(OC(=O)CCc2cn(-c3ccc(C)cc3)nn2)C(=O)c2ccccc2C1=O", "values": [{"measurement": "IC50", "setting": "Leishmania braziliensis", "result": 15.9, "unit": "µM"}]}, {"smiles": "COc1ccc(-c2csc(N/N=C/c3ccccn3)n2)cc1", "values": [{"measurement": "CC50 at 48 h", "setting": "[10]", "result": 1.35, "unit": "µM"}, {"measurement": "IC50", "setting": "Leishmania infantum", "result": 2.78, "unit": "µM"}]}, {"smiles": "Cn1cc[n+](CCCCCCCCOc2ccc(C(=O)/C=C/c3ccco3)cc2)c1", "values": [{"measurement": "EC50", "setting": "Leishmania panamensis [6]", "result": 8.39, "unit": "µM"}]}, {"smiles": "COc1ccc(-c2nnc(/C=C/c3cn(-c4ccccc4)nc3-c3ccccc3)o2)cc1OC", "values": [{"measurement": "IC50", "setting": "Leishmania donovani [12]", "result": 40.1, "unit": "µg/mL"}, {"measurement": "IC50", "setting": "Leishmania donovani [13]", "result": 66.8, "unit": "µg/mL"}]}, {"smiles": "O=C(CC[Se]c1ccnc2cc(Cl)ccc12)Nc1ccc([N+](=O)[O-])cc1", "values": [{"measurement": "IC50", "setting": "Leishmania amazonensis [11]", "result": 10.8, "unit": "µg/mL"}]}, {"smiles": "Cc1cc(C)cc(S(=O)(=O)n2c(SCC(=O)Nc3ccccc3)nc3ccccc32)c1", "values": [{"measurement": "inhibition", "setting": "Leishmania mexicana [14]", "result": 97, "unit": "%"}]}, {"smiles": "Cc1ccc(-c2nn(-c3ccccc3)cc2/C=C/c2nnc(-c3sc4ccccc4c3Cl)o2)cc1", "values": [{"measurement": "IC50", "setting": "Leishmania donovani [12]", "result": 19, "unit": "µg/mL"}, {"measurement": "IC50", "setting": "Leishmania donovani [13]", "result": 73.1, "unit": "µg/mL"}]}, {"smiles": "COC(=O)[C@]12CCC(C)(C)C[C@H]1C1=CC[C@@H]3[C@@]4(C)CC[C@@H]5O[C@H](c6ccccc6C(=O)O)OC[C@@]5(C)[C@@H]4CC[C@@]3(C)[C@]1(C)CC2", "values": [{"measurement": "EC50", "setting": "Leishmania mexicana [15]", "result": 5, "unit": "µM"}]}, {"smiles": "O=C1C=C(c2ccc(F)cc2)S(=O)(=O)c2ccccc21", "values": [{"measurement": "EC50", "setting": "Leishmania panamensis [16]", "result": 6.72, "unit": "µM"}, {"measurement": "CC50", "setting": "U-937", "result": 694, "unit": "µM"}]}, {"smiles": "Cn1cc[n+](CCCOc2ccc(C(=O)/C=C/c3ccco3)cc2)c1", "values": [{"measurement": "EC50", "setting": "Leishmania panamensis [6]", "result": 4.65, "unit": "µM"}]}, {"smiles": "COc1cc(-c2nnc(/C=C/c3cn(-c4ccccc4)nc3-c3ccccc3)o2)cc(OC)c1OC", "values": [{"measurement": "IC50", "setting": "Leishmania donovani [12]", "result": 33.3, "unit": "µg/mL"}, {"measurement": "IC50", "setting": "Leishmania donovani [13]", "result": 44.2, "unit": "µg/mL"}]}, {"smiles": "CC(C)=CC1=C(OC(=O)CCc2cn(-c3ccc(C)cc3)nn2)C(=O)c2ccccc2C1=O", "values": [{"measurement": "IC50", "setting": "Leishmania braziliensis", "result": 27.1, "unit": "µM"}]}]}
